Measurements published in US20250177383A1, “DI-CYCLOPROPYL BASED IL-17A MODULATORS AND USES THEREOF” (DICE ALPHA, INC., priority 2022, published 2025).
Where two headings read alike, the source gives them in different places.

Columns and labels:
IL-17A/A = molecular target: T1, IL-17A/A (Homo sapiens, UniProt Q16552); experiment: IL-17A/A HEK-Blue Cell Assay; assay type: cell-based; details: IL-17A/A stimulation, 20 hours, SEAP readout
T1 sequence (Q16552 24-155): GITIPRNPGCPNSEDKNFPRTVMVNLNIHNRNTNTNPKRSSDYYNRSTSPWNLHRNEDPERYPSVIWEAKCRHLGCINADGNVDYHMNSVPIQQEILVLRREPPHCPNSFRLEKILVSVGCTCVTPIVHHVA
Description: (§1) The HEK-Blue IL-17 reporter cell line (Fisher #NC1408637) was used for cell-based IL-17A/A inhibition assays. Cells were grown and prepared for assays according to the manufacturer's instructions. This cell line consists of HEK 293 cells that were designed to expressed IL-17R^A, IL-17R^C, and the ActI adapter molecule, the combination of which, when stimulated by IL-17A/A activates a NFκB promoter and drives expression of a recombinant Secreted Alkaline Phosphatase (SEAP) protein. Media from the cells is then added to a development reagent (Quanti-Blue Substrate, Fisher #NC9711613), and read at A630.
(§2) Compounds were titrated in DMSO, with a top final compound concentration of 10 uM and added to the cells immediately before adding IL-17A/A (Genscript #Z03228). The cells, compound, and IL-17A/A were then incubated for 20 hours before media was removed for SEAP analysis. The resulting inhibition curve was then analyzed using a Dotmatics screening protocol, and IC50 values were determined using a 4-parameter nonlinear fit. DMSO was added to a universal final concentration of 0.1% to optimize background. IL-17A/A inhibition data is provided in Table 1 for selected compounds.

IL-17A/F = molecular target: T2, IL-17A/F (Homo sapiens, UniProt Q16552+Q96PD4); experiment: IL-17A/F HEK-Blue Cell Assay; assay type: cell-based; details: HEK-Blue IL-17 reporter cells, IL-17A/F stimulation, 20 hours, SEAP readout; read-out: IL17AF HEK Blue pIC50 (converted)
T2 sequence (Q16552 24-155): T1 sequence (Q16552 24-155)
T2 sequence (Q96PD4 31-163): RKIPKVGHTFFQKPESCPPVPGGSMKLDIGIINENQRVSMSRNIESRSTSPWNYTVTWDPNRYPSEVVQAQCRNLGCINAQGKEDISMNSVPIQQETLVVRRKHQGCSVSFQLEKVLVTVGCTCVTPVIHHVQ
Description: as §1, with “cell-based IL-17A/F” for “cell-based IL-17A/A”, “expressed IL-17RA,” for “expressed IL-17R^A,”, “(SEAP) geneprotein.” for “(SEAP) protein.”
as §2, with “DMSO” for “DMSO, with a top final compound concentration of 10 uM”, “(Custom from R&D systems, untagged IL-17A/F+BSA as a carrier protein).” for “(Genscript #Z03228).”, “background.” for “background. IL-17A/A inhibition data is provided in Table 1 for selected compounds.”

[1] = HEK-Blue IL-17 reporter cells, read-out: IL17 AA HEK-5 pIC50 (converted)

Row | SMILES | IC50 (IL-17A/A; [1]) [nM] | IC50 (IL-17A/F) [nM] | IC50 (IL-17A/A; IL17 AA HEK-5 pIC50, HEK-Blue IL-17 reporter cells) [nM]
1 | CCOCCN(C)C(=O)N[C@@H](C(=O)N1CCN(C)[C@H](C)C1)[C@@H](C)c1ccc(NC(=O)[C@@H](NC(=O)c2ccnn2CC)C(C2CC2)C2CC2)c(F)c1 [Compound 313] | 10 to 100 | 100 to 10000 | –
2 | CCn1nccc1C(=O)N[C@H](C(=O)Nc1ccc([C@H](C)[C@@H](NC(=O)C(C)C2CC2)C(=O)N2CCN(C)CC2)cc1F)C(C1CC1)C1CC1 (single isomer, unassigned) [Compound 317] | < 10 | 10 to 100 | –
3 | CCn1nccc1C(=O)N[C@H](C(=O)Nc1ccc(C(C(NC(=O)[C@H](C)OC)C(=O)N2CCN(C)[C@H](C)C2)C(F)(F)F)cc1F)C(C1CC1)C1CC1 (single isomer, unassigned) [Compound 353] | < 10 | 10 to 100 | –
4 | CCn1nccc1C(=O)N[C@H](C(=O)Nc1ccc([C@H](C)[C@@H](NC(=O)C(C)OCCOC)C(=O)N2CCN(C)[C@H](C)C2)cc1F)C(C1CC1)C1CC1 (single isomer, unassigned) [Compound 311] | 10 to 100 | 100 to 10000 | –
5 | CCn1nccc1C(=O)N[C@H](C(=O)Nc1ccc([C@H](C)[C@@H](NC(=O)[C@H](C)OC)C(=O)N2CCN(C)[C@H](C)C2)cc1F)C(C1CC1)C1CC1 [Compound 221] | < 10 | 10 to 100 | –
6 | CCC(OC)C(=O)N[C@@H](C(=O)N1CCN(C)CC1)[C@@H](C)c1ccc(NC(=O)[C@@H](NC(=O)c2ccnn2CC)C(C2CC2)C2CC2)c(F)c1 (single isomer, unassigned) [Compound 340] | < 10 | 10 to 100 | –
7 | CCOC(C)C(=O)N[C@@H](C(=O)N1CCN(C)[C@H](C)C1)[C@@H](C)c1ccc(NC(=O)[C@@H](NC(=O)c2ccnn2CC)C(C2CC2)C2CC2)c(F)c1 (single isomer, unassigned) [Compound 320] | 10 to 100 | 100 to 10000 | –
8 | CCn1nccc1C(=O)N[C@H](C(=O)Nc1ccc([C@H](C)[C@@H](NC(=O)C(C)OCCOC)C(=O)N2CCN(C)CC2)cc1F)C(C1CC1)C1CC1 (single isomer, unassigned) [Compound 314] | 100 to 10000 | 100 to 10000 | –
9 | CCC(=O)N[C@@H](C(=O)N1CCC[C@H](N)C1)[C@@H](C)c1ccc(NC(=O)[C@@H](NC(=O)c2ccnn2CC)C(C2CC2)C2CC2)c(F)c1 [Compound 267] | 10 to 100 | 100 to 10000 | –
10 | CCc1nonc1C(=O)N[C@H](C(=O)Nc1ccc([C@H](C)[C@@H](NC(=O)CF)C(=O)N2CCNC(CF)C2)cc1F)C(C1CC1)C1CC1 (single isomer, unassigned) [Compound 302] | – | 100 to 10000 | 10 to 100
11 | C[C@@H](c1ccc(NC(=O)[C@@H](NC(=O)C2(F)CC2)C(C2CC2)C2CC2)c(F)c1)[C@@H](NC(=O)N(C)C1CC1)C(=O)N1CCN(C)CC1 [Compound 270] | < 10 | 100 to 10000 | –
12 | CCOC(C)C(=O)N[C@@H](C(=O)N1CCN(C)[C@H](C)C1)[C@@H](C)c1ccc(NC(=O)[C@@H](NC(=O)C2(F)CC2)C(C2CC2)C2CC2)c(F)c1 (single isomer, unassigned) [Compound 321] | 10 to 100 | 100 to 10000 | –
13 | CCn1nccc1C(=O)N[C@H](C(=O)Nc1ccc([C@H](C)[C@@H](NC(=O)C(C)C2CC2)C(=O)N2CCN(C)[C@H](C)C2)cc1F)C(C1CC1)C1CC1 (single isomer, unassigned) [Compound 309] | < 10 | < 10 | –
14 | CCn1nccc1C(=O)N[C@H](C(=O)Nc1ccc([C@H](C)[C@@H](NC(=O)C(C)C(F)(F)F)C(=O)N2CCN(C)CC2)cc1F)C(C1CC1)C1CC1 (single isomer, unassigned) [Compound 333] | 10 to 100 | 100 to 10000 | –
15 | COCC(=O)N[C@@H](C(=O)N1C[C@@H](C)N(C)C[C@H]1C)[C@@H](C)c1ccc(NC(=O)[C@@H](NC(=O)C2(F)CC2)C(C2CC2)C2CC2)c(F)c1 [Compound 289] | < 10 | 100 to 10000 | –
16 | COCC(=O)N[C@@H](C(=O)N1CCN(C)[C@H](C)C1)[C@@H](C)c1ccc(NC(=O)[C@@H](NC(=O)c2nonc2C)C(C2CC2)C2CC2)c(F)c1 [Compound 348] | < 10 | 100 to 10000 | –
17 | CCn1nccc1C(=O)N[C@H](C(=O)Nc1ccc([C@H](C)[C@@H](NC(=O)C(C)Cc2cc(O)no2)C(=O)N2CCN(C)[C@H](C)C2)cc1F)C(C1CC1)C1CC1 (single isomer, unassigned) [Compound 344] | < 10 | 10 to 100 | –
18 | CCn1nccc1C(=O)N[C@H](C(=O)Nc1ccc([C@H](C)[C@@H](NC(=O)C(C)Cc2cc(O)no2)C(=O)N2CCN(C)[C@H](C)C2)cc1F)C(C1CC1)C1CC1 (single isomer, unassigned) [Compound 343] | 10 to 100 | 100 to 10000 | –
19 | CCn1nccc1C(=O)N[C@H](C(=O)Nc1ccc([C@H](C)[C@@H](NC(=O)[C@@H](C)F)C(=O)N2CCN(C)[C@H](C)C2)cc1F)C(C1CC1)C1CC1 [Compound 349] | < 10 | 100 to 10000 | –
20 | CCn1nccc1C(=O)N[C@H](C(=O)Nc1ccc([C@H](C)[C@@H](NC(=O)COC)C(=O)N2C[C@@H](C)N(C)C[C@H]2C)cc1F)C(C1CC1)C1CC1 [Compound 286] | < 10 | 10 to 100 | –
21 | CCC(OC)C(=O)N[C@@H](C(=O)N1CCN(C)CC1)[C@@H](C)c1ccc(NC(=O)[C@@H](NC(=O)c2ccnn2CC)C(C2CC2)C2CC2)c(F)c1 (single isomer, unassigned) [Compound 339] | 10 to 100 | 100 to 10000 | –
22 | CCC(=O)N[C@@H](C(=O)N1CCN(C)CC1)[C@@H](C)c1ccc(NC(=O)[C@@H](NC(=O)c2ccnn2CC)C(C2CC2)C2CC2)c(F)c1 [Compound 200] | 10 to 100 | 10 to 100 | –
23 | CO[C@@H](C)C(=O)N[C@@H](C(=O)N1CCNC(CF)C1)[C@@H](C)c1ccc(NC(=O)[C@@H](NC(=O)C2(F)CC2)C(C2CC2)C2CC2)c(F)c1 (single isomer, unassigned) [Compound 301] | 10 to 100 | 100 to 10000 | –
24 | CCn1nccc1C(=O)N[C@H](C(=O)Nc1ccc([C@H](C)[C@@H](NC(=O)C(C2CC2)C2CC2)C(=O)N2CCN(C)[C@H](C)C2)cc1F)C(C1CC1)C1CC1 [Compound 319] | < 10 | 10 to 100 | –
25 | CCOC(=O)N[C@@H](CF)C(=O)N[C@@H](C(=O)N1CCN(C)CC1)[C@@H](C)c1ccc(NC(=O)[C@@H](NC(=O)c2nonc2C)C(C2CC2)C2CC2)c(F)c1 [Compound 360] | < 10 | 10 to 100 | –
26 | CCn1nccc1C(=O)N[C@H](C(=O)Nc1ccc([C@H](C)[C@@H](NC(=O)[C@H](C)N(C)C2=NCCO2)C(=O)N2CCN(C)[C@H](C)C2)cc1F)C(C1CC1)C1CC1 [Compound 296] | < 10 | 10 to 100 | –
27 | CCn1nccc1C(=O)N[C@H](C(=O)Nc1ccc([C@H](C)[C@@H](NC(=O)[C@H](C)OC)C(=O)N2CCN(C)C[C@@H]2C)cc1F)C(C1CC1)C1CC1 [Compound 284] | < 10 | 10 to 100 | –
28 | CO[C@@H](C)C(=O)N[C@@H](C(=O)N1CCN(C)[C@H](C)C1)[C@@H](C)c1ccc(NC(=O)[C@@H](NC(=O)c2nonc2C)C(C2CC2)C2CC2)c(F)c1 [Compound 308] | < 10 | 100 to 10000 | –
29 | CCOC(C)C(=O)N[C@@H](C(=O)N1CCN(C)CC1)[C@@H](C)c1ccc(NC(=O)[C@@H](NC(=O)c2ccnn2CC)C(C2CC2)C2CC2)c(F)c1 (single isomer, unassigned) [Compound 328] | < 10 | 10 to 100 | –
